In general, melting point refers to the temperature, or range, at which the solid turns liquid. What is called IC50 is the concentration needed to halve the response being measured. Usually % Inhibition stands for the drop in the measured response relative to a control, in per cent.

The structures appear in SMILES notation. Like-named read-outs stand apart in the source and are kept apart here.

Here are results for 5 compounds from US6413975B1, “Purine derivatives having phosphodiesterase iv inhibition activity” (Euro-Celtique, S.A., priority 1999, dated 2002).

In series [1] the test system is Guinea pig isolated trachealis muscle. Put plainly: Isolated guinea pig trachea: relaxation of airways muscle. It counts as cell-based. The note with it: compared with theophylline as standard (= 1); cumulative concentration effect curves. The method, then:
The test compound was dissolved in dimethylsulfoxide. Guinea pig isolated trachealis muscle was mounted in a bath containing Krebs solution maintained at 37.5° C. and bubbled with carbogen (95% 02, 5% CO2).
Tension changes were recorded isometrically using force displacement transducers in conjunction with potentiometric pen recorders.
The ability of the test compounds to relax airways muscle was investigated by the construction of cumulative concentration effect curves. Each concentration of the test compound was allowed to equilibrate with the tissue for 5 minutes before a concentration increment (ten-fold) was made.
In each tissue the test compound was compared with theophylline as standard.

For series [2], the system named is Type IV PDE. Put plainly: PDE IV inhibition: hydrolysis of [3H]-cyclic AMP by isolated Type IV PDE. To be noted: adenines, read-out: calc PDE IV IC50. It counts as biochemical, bovine. Put shortly: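 Type IV PDE was partially purified from bovine tracheal smooth muscle by DEAE ion-exchange chromatography. Activity was measured as [3H]-cAMP hydrolysis at 0.2 μM cAMP (≈Km), with protein adjusted so that ≤15% of substrate was hydrolysed. Compounds were tested in 2.5% final DMSO.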

Series [3] deals with ovalbumin-sensitized guinea pigs (eosinophils in BAL). In words: Ovalbumin sensitization and challenge in guinea pigs, differential cell counts in bronchoalveolar lavage. It is filed as in vivo, guinea pig. To be noted: 5 mg/kg ip one hour prior to ovalbumin challenge. The protocol:
(i) The effect of test compounds in a model of bronchial hyperresponsiveness (BHR) and cellular infiltration in the guinea pig induced by ovalbumin (see, for example Morley et al, Agents and Actions, Supplement, 1988, 23, 187) were studied.
(ii) Sensitization and Challenge procedure: Male Dunkin Hartley guine pigs (Charles River) (200-250 g) were injected i.p. with ovalbumin (OVA) (0.5 ml/animal; 20 μg OVA in AlOH)3 (moist gel)); this preparation produced an injectable stable suspension containing excess Al(OH)3. Sham animals were injected with 0.5 ml Al(OH)3 alone. After a period of 18-21 days animals were exposed to an aerosol of OVA (100 μg/ml) for 1 hour in an exposure chamber.
(iii) Bronchoalveloar lavage: Animals were anaesthetized, 24 hours after aerosol exposure, with urethane (25%, w/v, 7 ml/kg, i.p.) and the trachea cannulated. Bronchoalveo-lar lavage (BAL) was performed by instilling 5 ml sterile saline into the lungs via the tracheal cannula and the fluid was immediately removed. The fluid was reinjected and the procedure repeated 5 times in total. […] Total cell counts were perfomed on the resultant BAL fluid using an improved Neubauer haemocytometer. Cytospin preparations were prepared using a Shandon Cytospin 2 centrifuge. Two drops of BAL fluid were added to each cytospin cup and the samples were centrifuged for 1 min at 1300 r.p.m. Slides were fixed in acetone and stained with haemotoxylin and carbol chromotrope according to the method described by Lendrum (Lendrum 1944), differential cell counts were performed on each slide by counting 200 cells at random, the cell types were classified as neutrophils, eosinophils and mononuclear cells according to standard morphological criteria. Cells were counted blind. The results are expressed as the number of neutrophils, eosinophils and mononuclear cells per ml of BAL fluid. The remaining BAL fluid was centrifuged (10 min., 1000 g) and the resultant cells and cell free supernatants were aliquotted and frozen for later assays. Compounds were solu-bilized in either DMSO or saline administered intraperitoreally at a dose of 5 mg/kg one hour prior to ovalbumin challenge.

As for `CCNc1ncn(Cc2ccccc2)c2ncnc1-2` [3-Benzyl-6-ethylamino-3H-purine], the melting point is 187 to 188 °C. Also, the “In Vitro Activity” value in series [1] is reported as 18.5.
Turning to `CCCCCCn1cnc(NCC)c2ncnc1-2` [6-Ethylamino-3-hexyl-3H-purine], the “In Vitro Activity” value in series [1] turned out to be 25.6.
`CCNc1ncn(CC)c2nc(C3CC3)nc1-2` [8-Cyclopropyl-3-ethyl-6-ethylamino-3H-purine]: the 50% inhibitory concentration (IC50) in series [2] (Table 7) was 27.1 µM. Besides, the “In Vitro Activity” value in series [1] is 43.7.
Take `CCNc1ncn(CCC(C)C)c2nc(C3CC3)nc1-2.Cl` [8-cyclopropyl-6-ethylamino-3-(3-methylbutyl)-3H-purine hydrochloride]: the IC50 in series [2] (Table 4, cyclic AMP 0.2 μM) is 2.45 µM. Besides, in series [3] (BAL 24 hours after aerosol exposure), the “% Eosinophils in BAL x ± se” value is given as 16 ± 4%. Also, the “% Inhibition” value in series [3] (eosinophils in BAL versus vehicle) is 52%.
With `Cn1c(=O)c2[nH]cnc2n(C)c1=O` [Theophylline, reference compound], the “In Vitro Activity” value in series [1] stood at 1.
